Measured values published in patent publication US8936941B2, “Compositions useful for cancer detection and treatment, a cancer stem cell model, and methods of production and use thereof” (priority 2008, dated 2015).
“Also recorded” adds a separate entry of the source.

How the values were obtained:
[1] = tested on: PICSCs; assay: LIVE/DEAD Viability/Cytotoxicity Assay on PICSCs; type: cell-based, mouse; settings: 48 hours, single agent
Protocol: This Example is directed to stem cell assays utilizing PICSCs generated in accordance with the presently disclosed and claimed inventive concept(s). The PICSCs were generated as described herein above (i.e., transformation of NIH-3T3 cells with RBM3 gene, followed by transplantation into a nude mouse, then sorting of cells obtained from generated tumors utilizing DCAMKL-1).
The PICSCs were exposed to various compounds/anti-cancer agents, and cell viability assays were then performed using the LIVE/DEAD® Viability/Cytotoxicity Assay from Molecular Probes/Invitrogen (Eugene, Oreg.). The LIVE/DEAD® Viability/Cytotoxicity Assay is an assay that provides a two-color fluorescence cell viability that is based on the simultaneous determination of both live and dead cells.
Briefly, PICSCs cells were grown in a 96 well microtitre plate ([…], Newton, N.C.) to about 40% confluency and treated with anti-cancer agents/compounds for 48 hours. Subsequently, chromogenic substrates Calcein AM and Ethidium homodimer-1 (EthD-1) was added to the cells. Calcein AM is well retained within the live cells, producing uniform green fluorescence in live cells (measured at 515 nM). EthD-1 enters cells with damaged membranes and undergoes an enhancement of fluorescence upon binding to nucleic acids, thereby producing a bright red fluorescence in dead cells (measured at 617 nM). The fluorescence measurement was carried out using a microtitre plate reader (Synergy HT, BIO-TEK, Vinooski, Vt.).
In FIGS. 70-84, the PICSCs were treated with increasing concentrations of various compounds or combinations of compounds for 48 hours, and the data presented therein is represented as a % Dead/Live cells ratio following said treatment. […] Values in each figure are given as average±Standard Error Mean, and asterisks denote statistically significant differences (*p<0.01) compared with control.

[2] = tested on: HCT116 tumor xenografts; assay: HCT116 tumor xenograft model in athymic nude mice, intratumoral treatment; type: in vivo
From the text: Real-time reverse transcription-PCR analyses. Total RNA isolated either from cells or from human colon cancer cell tumor xenograft samples was subjected to reverse transcription with Superscript™ II RNase H—Reverse Transcriptase and random hexanucleotide primers (Invitrogen, Carlsbad, Calif.). The cDNA was subsequently used to perform Real-time PCR by SYBR chemistry (SYBR® Green I; Molecular Probes) for specific transcripts using gene specific primers and Jumpstart Taq DNA polymerase (Sigma-Aldrich, St. Louis, Mo.). […] The changes in mRNA were expressed as fold change relative to control with ±SEM value.
miRNA analysis. Total miRNA was isolated using mirVana™ miRNA isolation kit (Ambion Inc.). Total miRNA isolated either from cells or from human colon cancer cell tumor xenograft samples were subjected to reverse transcription with Superscript™ II RNase H—Reverse Transcriptase and random hexanucleotide primers (Invitrogen, Carlsbad, Calif.). The cDNA was subsequently used to perform Real-time PCR by SYBR chemistry (SYBR® Green I; Molecular Probes) for pri-let-7a transcript using specific primers and Jumpstart Taq DNA polymerase (Sigma-Aldrich, St. Louis, Mo.). […] The changes in pri-miRNA were expressed as fold change relative to control with ±SEM value. Primers used are: […]
Western Blot analysis. HCT116 and SW480 cells were cultured in a 6 well plates to 40% confluency and were transfected with si-DCAMKL-1 or si-Scr for 72 h. Cells or the tumor xenograft samples were lysed and the concentration of protein was determined by BCA protein assay kit (Pierce Biotechnology Inc., Rockford, Ill.). […] The membrane was blocked in 5% non-fat dry milk for 1 h and probed overnight with a rabbit anti-DCAMKL-1 antibody (Abcam Inc., Cambridge, Mass.) or with rabbit anti-c-Myc antibody (Santa Cruz). Subsequently, the membrane was incubated with anti-rabbit or anti-goat IgG horseradish peroxidase-conjugated antibodies (Amersham-Pharmacia) for 1 h at room temperature. The 82 kDa DCAMKL-1 and 49 kDa c-Myc proteins were detected using ECL™ Western Blotting detection reagents (Amersham-Pharmacia). Actin (43 kDa), used as loading control was identified using a goat polyclonal IgG (Santa Cruz Biotechnology Inc., Santa Cruz, Calif.).
Immunohistochemistry. Heat Induced Epitope Retrieval was performed on 4 μm formalin-fixed paraffin-embedded sections utilizing a pressurized Decloaking Chamber (Biocare Medical) in citrate buffer (pH 6.0) at 99° C. for 18 min. (a) Brightfield: Slides were incubated in 3% hydrogen peroxide, then normal serum and BSA at room temperature for 20 min. After incubation with primary antibody [DCAMKL-1 C-terminal (Abcam), anti-c-Myc (Santa Cruz Biotechnologies), L-FABP (Santa Cruz Biotechnologies)], the slides were incubated in peroxidase-conjugated EnVision™+polymer detection kit (DAKO). Slides were developed with Diaminobenzidine (Sigma). (b) Fluorescence: Slides were first incubated in Image-iT FX signal enhancer (Invitrogen), followed by normal serum and BSA at room temperature for 20 min.
Xenograft tumor model. (a) Liposomal preparation: siRNA was administered into the xenografts after incorporation into 1,2-Dioleoyl-sn-Glycero-3-Phosphocholine (DOPC) (Avanti Polar Lipids, Alabaster, Ala.). DOPC and siRNA were mixed in the presence of excess tertiary butanol at a ratio of 1:10 (w/w) (siRNA/DOPC). Tween 20 (Sigma-Aldrich) was added to the mixture at a ratio of 1:19 Tween 20:siRNA/DOPC. The mixture was vortexed and frozen in an acetone/dry ice bath and lyophilized. Before administration, the siRNA preparation was reconstituted in 0.9% sterile saline and injected at a dose of 50 μl (5 μM) per injection. (b) Tumor therapy: Female athymic nude mice (NCr-nu) were purchased from the National Cancer Institute-Frederick Cancer Research and Development Center (Frederick, Md.) and housed in specific pathogen-free conditions.

[3] = real-time RT-PCR, compared to control and si-Scr treated tumors

## si-DCAMKL-1: siRNA targeting the coding region of DCAMKL-1 (NM_004734), sequence GGGAGUGAGAACAAUCUAC (SEQ ID NO:3) (chemistry not given here; listed as Homo sapiens)
[1]
  PICSC cell death (% Dead/Live cells ratio): increasing levels of PICSC cell death
[2]; Western blot
  DCAMKL-1 protein in tumors: reduced expression
[2]; Western blot analysis
  Notch-1 and cleaved Notch-1 protein in tumors: marked reduction
[2]; Western blot and immunohistochemical analyses
  c-Myc protein in tumors: striking reduction
[2]; compared to controls
  reduction in Notch-1 mRNA in tumors: 55%
  reduction in c-Myc mRNA in tumors: 45%
[2]; [3]
  downregulation of DCAMKL-1 mRNA expression in tumors: 55%
  increase in pri-let-7a miRNA expression in tumors: > 3 fold
[2]; siRNA in liposome preparation injected into tumors from day 15, every third day, 5 doses
  tumor size / xenograft growth: statistically significant reduction; also recorded: near complete tumor growth arrest
[2]; tumors excised at day 28, after 5 injections
  tumor weight: significantly decreased
